Assays:
Test in all cases: radiometric filter-binding kinase assay, Kinase HotSpot
Settings in all cases: compound 0.5 µM; ATP 10 µM
PRKX (human) = PRKX (human) (UniProt P51817)
PRKCD (human) = PRKCD (human) (UniProt Q05655)
MARK4 (human) = MARK4 (human) (UniProt Q96L34)
CAMK1G (human) = CAMK1G (human) (UniProt Q96NX5)
MAPK13 (human) = MAPK13 (human) (UniProt O15264)
PAK2 (human) = PAK2 (human) (UniProt Q13177)
DYRK4 (human) = DYRK4 (human) (UniProt Q9NR20)
AURKC (human) = AURKC (human) (UniProt Q9UQB9)
TXK (human) = TXK (human) (UniProt P42681)
FRK (human) = FRK (human) (UniProt P42685)
CLK1 (human) = CLK1 (human) (UniProt P49759)
ZAP70 (human) = ZAP70 (human) (UniProt P43403)
MAP3K7 TAB1 (human) = MAP3K7 TAB1 (human) (UniProt O43318+Q15750)
PTK2 (human) = PTK2 (human) (UniProt Q05397)
TSSK2 (human) = TSSK2 (human) (UniProt Q96PF2)
PDPK1 (human) = PDPK1 (human) (UniProt O15530)
IKBKB (human) = IKBKB (human) (UniProt O14920)
EPHB2 (human) = EPHB2 (human) (UniProt P29323)
MAP3K3 (human) = MAP3K3 (human) (UniProt Q99759)
RIPK2 (human) = RIPK2 (human) (UniProt O43353)
MST4 (human) = MST4 (human) (UniProt Q9P289)
RPS6KA5 KD2 (human) = RPS6KA5 KD2 (human) (UniProt O75582)
MERTK (human) = MERTK (human) (UniProt Q12866)
CDC42BPB (human) = CDC42BPB (human) (UniProt Q9Y5S2)
IGF1R (human) = IGF1R (human) (UniProt P08069)
GSK3B (human) = GSK3B (human) (UniProt P49841)
MAPKAPK5 (human) = MAPKAPK5 (human) (UniProt Q8IW41)
TGFBR1 (human) = TGFBR1 (human) (UniProt P36897)
MAP3K2 (human) = MAP3K2 (human) (UniProt Q9Y2U5)
RPS6KA6 KD1 KD2 (human) = RPS6KA6 KD1 KD2 (human) (UniProt Q9UK32)
STK11 (human) = STK11 (human) (UniProt Q15831)
MAP4K5 (human) = MAP4K5 (human) (UniProt Q9Y4K4)
TAOK2 (human) = TAOK2 (human) (UniProt Q9UL54)
LIMK1 (human) = LIMK1 (human) (UniProt P53667)
PLK3 (human) = PLK3 (human) (UniProt Q9H4B4)
DSTYK (human) = DSTYK (human) (UniProt Q6XUX3)
PDGFRB (human) = PDGFRB (human) (UniProt P09619)
BTK (human) = BTK (human) (UniProt Q06187)
LCK (human) = LCK (human) (UniProt P06239)
PRKCZ (human) = PRKCZ (human) (UniProt Q05513)
MINK1 (human) = MINK1 (human) (UniProt Q8N4C8)
RET (human) = RET (human) (UniProt P07949)

MAPK13 (human), sequence (O15264 whole entry, looked up): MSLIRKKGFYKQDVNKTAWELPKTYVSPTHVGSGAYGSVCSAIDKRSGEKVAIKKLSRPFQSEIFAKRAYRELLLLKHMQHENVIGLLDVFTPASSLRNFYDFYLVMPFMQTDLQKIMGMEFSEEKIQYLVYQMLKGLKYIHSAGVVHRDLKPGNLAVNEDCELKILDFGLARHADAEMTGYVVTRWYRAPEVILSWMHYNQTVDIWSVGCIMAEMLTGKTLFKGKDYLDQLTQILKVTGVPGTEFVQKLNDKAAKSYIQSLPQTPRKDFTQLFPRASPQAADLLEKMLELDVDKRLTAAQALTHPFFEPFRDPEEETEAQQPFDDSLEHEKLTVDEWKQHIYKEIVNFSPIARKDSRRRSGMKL
AURKC (human), sequence (Q9UQB9 whole entry, looked up): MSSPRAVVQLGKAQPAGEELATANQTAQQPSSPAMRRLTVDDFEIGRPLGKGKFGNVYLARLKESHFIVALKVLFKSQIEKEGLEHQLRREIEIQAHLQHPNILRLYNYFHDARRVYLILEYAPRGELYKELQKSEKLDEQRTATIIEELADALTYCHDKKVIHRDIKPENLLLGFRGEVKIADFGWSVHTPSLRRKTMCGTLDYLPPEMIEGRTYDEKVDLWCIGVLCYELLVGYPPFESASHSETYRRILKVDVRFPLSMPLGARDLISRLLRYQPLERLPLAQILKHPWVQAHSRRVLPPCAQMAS
MERTK (human), sequence (Q12866 whole entry, looked up): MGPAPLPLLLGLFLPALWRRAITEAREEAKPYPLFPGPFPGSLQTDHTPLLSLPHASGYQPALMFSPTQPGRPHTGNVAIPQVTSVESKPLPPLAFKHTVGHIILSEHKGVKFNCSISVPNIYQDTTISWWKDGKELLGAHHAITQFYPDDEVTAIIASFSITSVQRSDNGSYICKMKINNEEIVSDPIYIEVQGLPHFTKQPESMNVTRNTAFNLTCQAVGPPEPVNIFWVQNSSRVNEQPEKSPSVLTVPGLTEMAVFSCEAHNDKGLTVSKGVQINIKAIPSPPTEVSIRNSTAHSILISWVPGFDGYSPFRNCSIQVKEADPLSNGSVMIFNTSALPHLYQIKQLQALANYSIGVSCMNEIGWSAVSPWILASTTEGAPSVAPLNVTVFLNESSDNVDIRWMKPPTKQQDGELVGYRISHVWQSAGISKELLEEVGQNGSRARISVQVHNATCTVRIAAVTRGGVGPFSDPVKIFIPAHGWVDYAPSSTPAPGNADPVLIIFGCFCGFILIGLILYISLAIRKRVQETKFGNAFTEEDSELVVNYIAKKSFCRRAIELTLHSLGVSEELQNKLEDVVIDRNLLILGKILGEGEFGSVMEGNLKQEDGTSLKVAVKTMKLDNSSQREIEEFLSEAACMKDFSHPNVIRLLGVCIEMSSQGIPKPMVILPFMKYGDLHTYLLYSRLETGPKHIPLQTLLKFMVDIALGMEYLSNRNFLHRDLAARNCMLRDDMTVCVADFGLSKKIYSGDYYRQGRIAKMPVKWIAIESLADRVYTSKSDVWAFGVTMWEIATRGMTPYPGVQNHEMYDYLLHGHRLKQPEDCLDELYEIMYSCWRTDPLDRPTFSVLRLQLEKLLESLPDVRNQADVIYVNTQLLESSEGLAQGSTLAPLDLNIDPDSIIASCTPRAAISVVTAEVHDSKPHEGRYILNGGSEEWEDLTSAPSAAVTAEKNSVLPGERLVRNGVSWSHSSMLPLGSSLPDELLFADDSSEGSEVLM
DSTYK (human), sequence (Q6XUX3 whole entry, looked up): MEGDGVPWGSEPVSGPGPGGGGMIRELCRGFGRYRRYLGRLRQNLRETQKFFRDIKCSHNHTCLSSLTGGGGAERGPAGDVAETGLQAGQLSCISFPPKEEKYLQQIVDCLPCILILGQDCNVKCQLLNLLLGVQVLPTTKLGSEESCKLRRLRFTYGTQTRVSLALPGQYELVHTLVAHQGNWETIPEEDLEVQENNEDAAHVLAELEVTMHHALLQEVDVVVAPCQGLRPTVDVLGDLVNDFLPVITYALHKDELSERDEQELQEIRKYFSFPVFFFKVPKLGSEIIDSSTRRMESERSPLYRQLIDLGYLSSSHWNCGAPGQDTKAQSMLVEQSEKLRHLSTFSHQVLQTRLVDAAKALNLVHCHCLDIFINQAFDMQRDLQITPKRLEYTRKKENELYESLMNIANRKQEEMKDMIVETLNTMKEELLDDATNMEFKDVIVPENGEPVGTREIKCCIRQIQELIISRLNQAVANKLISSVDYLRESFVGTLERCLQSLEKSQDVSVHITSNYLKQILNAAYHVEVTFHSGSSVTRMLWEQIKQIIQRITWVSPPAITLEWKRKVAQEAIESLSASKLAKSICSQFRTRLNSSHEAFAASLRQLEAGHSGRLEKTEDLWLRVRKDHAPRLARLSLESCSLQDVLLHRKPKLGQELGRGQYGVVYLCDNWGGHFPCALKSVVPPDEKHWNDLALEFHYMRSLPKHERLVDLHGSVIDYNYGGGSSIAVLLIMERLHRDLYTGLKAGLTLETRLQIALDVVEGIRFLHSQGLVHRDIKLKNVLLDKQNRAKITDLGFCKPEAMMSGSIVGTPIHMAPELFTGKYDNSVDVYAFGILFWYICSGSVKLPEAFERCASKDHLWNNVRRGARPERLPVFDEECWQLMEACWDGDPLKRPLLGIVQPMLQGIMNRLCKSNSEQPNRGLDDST
PAK2 (human), sequence (Q13177 whole entry, looked up): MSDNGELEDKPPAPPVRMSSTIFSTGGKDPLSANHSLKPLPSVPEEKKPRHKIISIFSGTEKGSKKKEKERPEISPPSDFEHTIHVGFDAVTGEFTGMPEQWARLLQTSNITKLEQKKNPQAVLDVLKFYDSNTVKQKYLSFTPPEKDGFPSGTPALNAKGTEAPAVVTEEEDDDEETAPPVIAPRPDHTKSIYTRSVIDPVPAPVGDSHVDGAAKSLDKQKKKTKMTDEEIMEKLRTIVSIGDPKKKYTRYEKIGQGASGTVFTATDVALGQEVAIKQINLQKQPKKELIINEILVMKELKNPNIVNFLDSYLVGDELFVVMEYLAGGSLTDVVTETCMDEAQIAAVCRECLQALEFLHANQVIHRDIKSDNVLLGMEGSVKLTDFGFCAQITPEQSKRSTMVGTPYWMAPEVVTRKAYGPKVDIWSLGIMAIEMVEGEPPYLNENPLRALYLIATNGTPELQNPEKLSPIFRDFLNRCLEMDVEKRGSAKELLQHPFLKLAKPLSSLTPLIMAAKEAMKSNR
PLK3 (human), sequence (Q9H4B4 whole entry, looked up): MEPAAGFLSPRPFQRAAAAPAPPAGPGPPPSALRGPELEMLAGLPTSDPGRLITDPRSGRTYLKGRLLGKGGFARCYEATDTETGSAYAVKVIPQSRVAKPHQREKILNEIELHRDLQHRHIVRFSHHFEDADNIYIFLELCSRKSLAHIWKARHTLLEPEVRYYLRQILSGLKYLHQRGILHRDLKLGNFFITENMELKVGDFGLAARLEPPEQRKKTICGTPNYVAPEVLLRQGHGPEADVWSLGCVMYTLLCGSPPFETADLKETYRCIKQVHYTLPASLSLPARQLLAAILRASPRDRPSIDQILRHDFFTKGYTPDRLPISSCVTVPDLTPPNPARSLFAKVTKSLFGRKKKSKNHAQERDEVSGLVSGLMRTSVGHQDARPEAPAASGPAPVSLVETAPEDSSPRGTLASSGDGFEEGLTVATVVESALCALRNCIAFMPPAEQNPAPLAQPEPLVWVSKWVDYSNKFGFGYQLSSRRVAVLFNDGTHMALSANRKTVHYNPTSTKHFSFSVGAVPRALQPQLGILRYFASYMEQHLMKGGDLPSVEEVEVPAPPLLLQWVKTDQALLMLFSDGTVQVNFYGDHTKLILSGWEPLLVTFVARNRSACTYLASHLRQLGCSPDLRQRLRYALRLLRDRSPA
MAP4K5 (human), sequence (Q9Y4K4 whole entry, looked up): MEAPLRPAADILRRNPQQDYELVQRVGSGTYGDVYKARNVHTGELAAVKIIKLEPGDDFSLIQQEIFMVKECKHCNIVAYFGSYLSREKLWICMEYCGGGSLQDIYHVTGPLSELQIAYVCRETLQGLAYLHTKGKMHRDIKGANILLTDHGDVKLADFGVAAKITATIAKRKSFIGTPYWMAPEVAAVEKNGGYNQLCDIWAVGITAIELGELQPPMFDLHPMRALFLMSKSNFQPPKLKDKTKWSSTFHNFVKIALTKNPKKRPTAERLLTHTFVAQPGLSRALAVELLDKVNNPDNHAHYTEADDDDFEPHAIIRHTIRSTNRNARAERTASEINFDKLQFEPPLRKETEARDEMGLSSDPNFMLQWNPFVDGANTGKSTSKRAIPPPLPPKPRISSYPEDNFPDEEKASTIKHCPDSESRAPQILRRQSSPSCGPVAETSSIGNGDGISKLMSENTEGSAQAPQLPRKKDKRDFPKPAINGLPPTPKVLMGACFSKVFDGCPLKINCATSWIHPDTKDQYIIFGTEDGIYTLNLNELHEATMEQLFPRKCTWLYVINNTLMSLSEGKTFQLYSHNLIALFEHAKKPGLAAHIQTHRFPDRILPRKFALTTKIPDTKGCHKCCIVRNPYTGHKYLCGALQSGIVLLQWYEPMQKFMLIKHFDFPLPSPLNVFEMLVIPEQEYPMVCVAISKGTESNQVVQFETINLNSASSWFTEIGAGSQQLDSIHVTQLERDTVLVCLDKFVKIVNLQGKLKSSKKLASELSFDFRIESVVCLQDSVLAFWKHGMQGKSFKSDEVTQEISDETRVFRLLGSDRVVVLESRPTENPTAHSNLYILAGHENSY
MST4 (human), sequence (Q9P289 whole entry, looked up): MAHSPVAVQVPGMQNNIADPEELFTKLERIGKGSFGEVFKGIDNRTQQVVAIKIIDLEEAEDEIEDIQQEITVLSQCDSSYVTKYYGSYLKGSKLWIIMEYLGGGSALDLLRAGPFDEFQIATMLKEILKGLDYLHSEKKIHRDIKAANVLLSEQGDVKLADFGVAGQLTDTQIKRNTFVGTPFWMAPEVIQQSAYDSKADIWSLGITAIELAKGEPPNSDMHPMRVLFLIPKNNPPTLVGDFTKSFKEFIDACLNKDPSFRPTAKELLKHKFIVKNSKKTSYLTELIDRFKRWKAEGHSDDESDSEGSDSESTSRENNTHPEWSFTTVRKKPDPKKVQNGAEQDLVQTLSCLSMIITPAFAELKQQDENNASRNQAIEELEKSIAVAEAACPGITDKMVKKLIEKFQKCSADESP

For `O=C1Nc2ccc(Br)cc2/C1=C\c1cc2c([nH]1)CCCC2`, the residual activity (PRKX (human)) was 97.2%, the residual activity (PRKCD (human)) was 95.6% and the residual activity (MARK4 (human)) was 82.9%. For the same compound, the residual activity (CAMK1G (human)) was 103%, the residual activity (MAPK13 (human)) was 100% and the residual activity (PAK2 (human)) was 90%. For the same compound, the residual activity (DYRK4 (human)) was 102%, the residual activity (AURKC (human)) was 86.3% and the residual activity (TXK (human)) was 97.3%. It also gave a residual activity (FRK (human)) of 91%, a residual activity (CLK1 (human)) of 97.2% and a residual activity (ZAP70 (human)) of 93.9%. It also gave a residual activity (MAP3K7 TAB1 (human)) of 60.9%, a residual activity (PTK2 (human)) of 81.9% and a residual activity (TSSK2 (human)) of 89.8%. For the same compound, the residual activity (PDPK1 (human)) was 95.3%, the residual activity (IKBKB (human)) was 102% and the residual activity (EPHB2 (human)) was 85.4%. For the same compound, the residual activity (MAP3K3 (human)) was 88.6%, the residual activity (RIPK2 (human)) was 87.2% and the residual activity (MST4 (human)) was 87.9%. For the same compound, the residual activity (RPS6KA5 KD2 (human)) was 90.3%, the residual activity (MERTK (human)) was 81.2% and the residual activity (CDC42BPB (human)) was 114%. For the same compound, the residual activity (IGF1R (human)) was 74.3%, the residual activity (GSK3B (human)) was 94.1% and the residual activity (MAPKAPK5 (human)) was 90.6%. The residual activity (TGFBR1 (human)) was 100%, the residual activity (MAP3K2 (human)) was 93.6% and the residual activity (RPS6KA6 KD1 KD2 (human)) was 78.6%. For the same compound, the residual activity (STK11 (human)) was 88.7%, the residual activity (MAP4K5 (human)) was 17.7% and the residual activity (TAOK2 (human)) was 89.4%. It also gave a residual activity (LIMK1 (human)) of 83%, a residual activity (PLK3 (human)) of 97.8% and a residual activity (DSTYK (human)) of 93.1%. It also gave a residual activity (PDGFRB (human)) of 58.8%, a residual activity (BTK (human)) of 90.5% and a residual activity (LCK (human)) of 84.5%. The residual activity (PRKCZ (human)) was 104%, the residual activity (MINK1 (human)) was 26.4% and the residual activity (RET (human)) was 42.9%.

From the kinase profiling compilation of Christmann-Franck et al. (2016)
